From patent publication US10815222B2, “Compounds for use in the treatment of kinetoplastid infection” (C.N.C.C.S. S.c.a.r.l. COLLEZIONE NAZIONALE DEI COMPOSTI …, priority 2016, dated 2020) come the findings set out here.

For the first experiment, the system named is Bloodstream form of Trypanosoma brucei, strain Lister 427. As to the kind of experiment: Trypanosoma brucei growth inhibition assay (CellTiter-Glo, 24 h). It is filed as cell-based. Conditions: T. Brucei Growth Inibition Assay, class symbols; read-out: T. Brucei GI EC50. In a few lines:
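Growth read-out was CellTiter-Glo luminescence after 24 h at 37 °C incubation of 1500 bloodstream-form Lister 427 trypanosomes per well with compound, in supplemented IMDM containing 10% FBS and at most 0.25% DMSO.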
(ATP-based viability assays read luminescence as a measure of living cells.)
A word on the EC50: it is the concentration giving half of the maximal effect. In the case of `O=C(Cc1c[nH]c2ccc(O)cc12)N1CCN(CCc2ccccc2)CC1c1ncc(-c2ccc3ccccc3c2)[nH]1` (stereo not shown), the EC50 was in the range of 1010 to 5000 nM.
Turning to `COc1ccc2nc(C(F)(F)F)n(CC(=O)N3CC[C@@H](N(C)CC4CCOC4)C[C@H]3c3ncc(-c4cc5ccccc5nc4OC)[nH]3)c2c1` (stereo partly shown), the 50% effective concentration (EC50) is below 100 nM.

The same experiment, now with this note: Trypanosoma brucei; T. Brucei Growth Inibition Assay, class symbols; read-out: T. Brucei GI EC50.
For `COc1ccc2nc(C)n(CC(=O)N3CCN(CC4CCOC4)C[C@H]3c3ncc(-c4cc5ccccc5cn4)[nH]3)c2c1` (stereo partly drawn) [1-((2S)-2-(5-(isoquinolin-3-yl)-1H-imidazol-2-yl)-4-((tetrahydrofuran-3-yl)methyl)piperazin-1-yl)-2-(6-methoxy-2-methyl-1H-benzo[d]imidazol-1-yl)ethan-1-one], the half-maximal effective concentration (EC50) lay within 100 to 500 nM.
Turning to `COc1nc2ccccc2cc1-c1cnc(C2CNCCN2C(=O)Cc2ccccc2)[nH]1` (stereo not shown), the EC50 is 1010 to 5000 nM.
In the case of `Cc1[nH]c2ccccc2c1CC(=O)N1CCN(CC2CC2)CC1c1ncc(-c2ccc3ccccc3c2)[nH]1` (stereo not shown), the EC50 is 100 to 500 nM.
With `COc1ccc2nc(C(F)(F)F)n(CC(=O)N3CCC(N(C)Cc4cnccn4)C[C@H]3c3ncc(-c4cc5ccccc5nc4OC)[nH]3)c2c1` (stereo partly drawn) [2-(6-methoxy-2-(trifluoromethyl)-1H-benzo[d]imidazol-1-yl)-1-((2S)-2-(5-(2-methoxyquinolin-3-yl)-1H-imidazol-2-yl)-4-(methyl(pyrazin-2-ylmethyl)amino)piperidin-1-yl)ethan-1-one], the EC50 was below 100 nM.
On the same count and under the same terms, with `COc1nc2ccccc2cc1-c1cnc(C2CN(CC3CCOC3)CCN2C(=O)Cn2c(C)nc3ccc(F)cc32)[nH]1` (stereo not shown) the figure was 100 to 500 nM; with `COc1ccc2nc(C)n(CC(=O)N3CCN(Cc4nnc(C)o4)C[C@H]3c3ncc(-c4cc5ccccc5nc4OC)[nH]3)c2c1`, 100 to 500 nM.
For `COc1nc2ccccc2cc1-c1cnc(C2CN(Cc3cc[n+]([O-])cc3)CCN2C(=O)Cc2c(C)[nH]c3ccc(F)cc23)[nH]1` (stereo not shown), the EC50 was 1010 to 5000 nM.
For the compound `COc1nc2ccccc2cc1-c1cnc(C2CN(CC3CCOC3)CCN2C(=O)Cn2c(C#N)nc3ccccc32)[nH]1` (stereo not shown), the EC50 was 1010 to 5000 nM.
Consider `COc1ccc2nc(C)n(CC(=O)N3CCCCC3c3ncc(-c4cc5ccccc5nc4OC)[nH]3)c2c1` (stereo not shown), for which the half-maximal effective concentration (EC50) was in the range of 100 to 500 nM.
Take `CCC(=O)CCCN1CCN(C(=O)c2ccccc2)C(c2ncc(-c3ccc4ccccc4c3)[nH]2)C1` (stereo not shown) [6-(4-benzoyl-3-(5-(naphthalen-2-yl)-1H-imidazol-2-yl)piperazin-1-yl)hexan-3-one]: the EC50 fell in the range of 1010 to 5000 nM.
On to `COc1ccc2nc(C)n(CC(=O)N3CCOCC3c3ncc(-c4cc5ccccc5nc4OC)[nH]3)c2c1` (stereo not shown), for which the EC50 fell in the range of 1010 to 5000 nM.
On to `Cc1[nH]c2ccc(F)cc2c1CC(=O)N1CCN(CC2CCOC2)CC1c1ncc(-c2ccc(-n3cccn3)cc2)[nH]1` (stereo not shown), for which the EC50 was in the range of 1010 to 5000 nM.
As to `COc1nc2ccccc2cc1-c1cnc([C@@H]2CCN(Cc3ccn(C)n3)CCN2C(=O)[C@@](OC)(c2ccccc2)C(F)(F)F)[nH]1`, the half-maximal effective concentration (EC50) is 1010 to 5000 nM.
With `O=C(Cc1n[nH]c2ccccc12)N1CCN(Cc2ccccc2)CC1c1ncc(-c2ccc3ccccc3c2)[nH]1` (stereo not shown), the EC50 was in the range of 1010 to 5000 nM.
Regarding `COc1nc2ccccc2cc1-c1cnc(C2CN(Cc3ccccc3)CCN2C(=O)Cc2c(C)[nH]c3ccc(F)cc23)[nH]1` (stereo not shown), the EC50 fell in the range of 100 to 500 nM.
The same measure, in the same setting: with `COc1ccc2nc(C(F)(F)F)n(CC(=O)N3CC[C@@H](N(C)C)C[C@H]3c3ncc(-c4cc5ccccc5nc4OC)[nH]3)c2c1` the figure was 510 to 1000 nM; with `CCC(=O)CCCN1CCN(C(=O)c2cncs2)C(c2ncc(-c3ccc4ccccc4c3)[nH]2)C1` (stereo not shown), 1010 to 5000 nM; with `CCCCCCN1CCN(C(=O)CC2=C(C)NC3C=CC=CC23)C(c2ncc(-c3cc4ccccc4nc3OC)[nH]2)C1` (stereo not shown), 100 to 500 nM.
As to `COc1ccc2c(c1)C(CC(=O)N1CCN(C)CC1c1ncc(-c3ccc4ccccc4c3)[nH]1)C(=O)N2` (stereo not shown), the EC50 is 1010 to 5000 nM.
Same read-out and setting: the result for `COc1ccc2nc(C(F)(F)F)n(CC(=O)N3CC[C@H](N[C@H]4CCOC4)C[C@H]3c3ncc(-c4cc5ccccc5nc4OC)[nH]3)c2c1` [2-(6-methoxy-2-(trifluoromethyl)-1H-benzo[d]imidazol-1-yl)-1-((2S,4S)-2-(5-(2-methoxyquinolin-3-yl)-1H-imidazol-2-yl)-4-(((S)-tetrahydrofuran-3-yl)amino)piperidin-1-yl)ethan-1-one] reads below 100 nM; that for `COc1nc2ccccc2cc1-c1cnc(C2CN(CC(C)C)CCN2C(=O)Cc2c(C)[nH]c3ccc(F)cc23)[nH]1` (stereo not shown), 100 to 500 nM.
For `COc1ccc2nc(C(F)(F)F)n(CC(=O)N3CC[C@H](NCC(C)C)C[C@H]3c3ncc(-c4cc5ccccc5nc4OC)[nH]3)c2c1` [1-((2S,4S)-4-(isobutylamino)-2-(5-(2-methoxyquinolin-3-yl)-1H-imidazol-2-yl)piperidin-1-yl)-2-(6-methoxy-2-(trifluoromethyl)-1H-benzo[d]imidazol-1-yl)ethan-1-one], the half-maximal effective concentration (EC50) was below 100 nM.
On to `COc1ccc2nc(C(F)(F)F)n(CC(=O)N3CCN(C)CCC3c3ncc(-c4cc5ccccc5nc4OC)[nH]3)c2c1` (stereo not shown), for which the EC50 was 510 to 1000 nM.
Same read-out and setting: the result for `COc1nc2ccccc2cc1-c1cnc(C2COCCN2C(=O)Cc2c(C)[nH]c3ccc(F)cc23)[nH]1` (stereo not shown) reads 510 to 1000 nM; that for `COc1nc2ccccc2cc1-c1cnc([C@@H]2CN(CC3CCOC3)CCN2C(=O)Cn2cc(C(F)(F)F)nc2C)[nH]1` (stereo partly shown), 1010 to 5000 nM.
Regarding `COc1ccc2nc(C(F)(F)F)n(CC(=O)N3CC[C@H](N(C)C)C[C@H]3c3ncc(-c4cc5ccccc5nc4OC)[nH]3)c2c1` [1-((2S,4S)-4-(dimethylamino)-2-(5-(2-methoxyquinolin-3-yl)-1H-imidazol-2-yl)piperidin-1-yl)-2-(6-methoxy-2-(trifluoromethyl)-1H-benzo[d]imidazol-1-yl)ethan-1-one], the EC50 was below 100 nM.
On the same count and under the same terms, with `COc1ccc2nc(C(F)(F)F)n(CC(=O)N3CC[C@H](NC4CCC4)C[C@H]3c3ncc(-c4cc5ccccc5nc4OC)[nH]3)c2c1` [1-((2S,4S)-4-(cyclobutylamino)-2-(5-(2-methoxyquinolin-3-yl)-1H-imidazol-2-yl)piperidin-1-yl)-2-(6-methoxy-2-(trifluoromethyl)-1H-benzo[d]imidazol-1-yl)ethan-1-one] the figure was below 100 nM; with `COc1nc2ccccc2cc1-c1cnc([C@@H]2CN(CC3CCOC3)CCN2C(=O)Cn2c(C)nc3ccc(S(C)(=O)=O)cc32)[nH]1` (stereo partly shown), 100 to 500 nM; with `COc1nc2ccccc2cc1-c1cnc(C2CN(C(=O)C3CCN(C)CC3)CCN2C(=O)Cc2c(C)[nH]c3ccc(F)cc23)[nH]1` (stereo not shown), 1010 to 5000 nM.
The same measure, in the same setting: the result for `COc1ccc2nc(C(F)(F)F)n(CC(=O)N3CC[C@H](NC4CC(OC)C4)C[C@H]3c3ncc(-c4cc5ccccc5nc4OC)[nH]3)c2c1` (stereo partly drawn) [2-(6-methoxy-2-(trifluoromethyl)-1H-benzo[d]imidazol-1-yl)-1-((2S,4S)-4-((3-methoxycyclobutyl)amino)-2-(5-(2-methoxyquinolin-3-yl)-1H-imidazol-2-yl)piperidin-1-yl)ethan-1-one] reads below 100 nM; that for `COc1nc2ccccc2cc1-c1cnc(C2CN(CC3CCOC3)CCN2C(=O)Cc2ccc(N3CCNC3=O)cc2)[nH]1` (stereo not shown), 1010 to 5000 nM; that for `COc1nc2ccccc2cc1-c1cnc(C2CS(=O)(=O)CCN2C(=O)Cn2c(C)nc3ccccc32)[nH]1` (stereo not shown), 1010 to 5000 nM.
Same read-out and setting: with `CCCCCCN1CCN(C(=O)Cc2c[nH]c3cccnc23)C(c2ncc(-c3ccc4ccccc4c3)[nH]2)C1` (stereo not shown) the figure was 1010 to 5000 nM; with `CCCCCCN1CCN(C(=O)CC2=C(C)NC3C=CC=CC23)C(c2ncc(-c3cc4ccccc4nc3O)[nH]2)C1` (stereo not shown), 1010 to 5000 nM; with `COc1nc2ccccc2cc1-c1cnc([C@@H]2CN(C[C@H]3CCOC3)CCN2C(=O)Cn2c(C(F)(F)F)nc3ccccc32)[nH]1` (single isomer, unassigned), below 100 nM.
For `Cc1[nH]c2ccc(F)cc2c1CC(=O)N1CCS(=O)(=O)CC1c1ncc(-c2ccc3ccccc3c2)[nH]1` (stereo not shown), the half-maximal effective concentration (EC50) was 100 to 500 nM.
Consider `COc1ccc2nc(C)n(CC(=O)N3CCN(CC4COC4)C[C@H]3c3ncc(-c4cc5ccccc5nc4OC)[nH]3)c2c1` [(S)-2-(6-methoxy-2-methyl-1H-benzo[d]imidazol-1-yl)-1-(2-(5-(2-methoxyquinolin-3-yl)-1H-imidazol-2-yl)-4-(oxetan-3-ylmethyl)piperazin-1-yl)ethan-1-one], for which the EC50 is below 100 nM.
Turning to `COc1ccc2nc(C(F)(F)F)n(CC(=O)N3CCN(C4CCS(=O)(=O)CC4)CCC3c3ncc(-c4cc5ccccc5nc4OC)[nH]3)c2c1` (stereo not shown) [1-(4-(1,1-dioxidotetrahydro-2H-thiopyran-4-yl)-7-(5-(2-methoxyquinolin-3-yl)-1H-imidazol-2-yl)-1,4-diazepan-1-yl)-2-(6-methoxy-2-(trifluoromethyl)-1H-benzo[d]imidazol-1-yl)ethan-1-one], the EC50 is below 100 nM.
The same measure, in the same setting: the result for `COc1ccc2[nH]cc(CC(=O)N3CCN(CC4CCOC4)CC3c3ncc(-c4cc5ccccc5nc4OC)[nH]3)c2c1` (stereo not shown) reads 100 to 500 nM; that for `CCC(=O)CCCN1CCN(C(=O)Cc2c(C)[nH]c3ccc(OC)cc23)C(c2ncc(-c3cc4ccccc4nc3OC)o2)C1` (stereo not shown), 1010 to 5000 nM.
In the case of `COc1ccc2nc(C(F)(F)F)n(CC(=O)N3CCN(Cc4ccn(C)n4)CC[C@H]3c3ncc(-c4cc5ccccc5nc4OC)[nH]3)c2c1` [(S)-2-(6-methoxy-2-(trifluoromethyl)-1H-benzo[d]imidazol-1-yl)-1-(7-(5-(2-methoxyquinolin-3-yl)-1H-imidazol-2-yl)-4-((1-methyl-1H-pyrazol-3-yl)methyl)-1,4-diazepan-1-yl)ethan-1-one], the EC50 was below 100 nM.
Regarding `COc1nc2ccccc2cc1-c1cnc(C2CN(C)CCN2C(=O)Cc2c[nH]c3ncccc23)[nH]1` (stereo not shown), the half-maximal effective concentration (EC50) lay within 1010 to 5000 nM.
For `COc1nc2ccccc2cc1-c1cnc(C2CN(CC3CCOC3)CCN2C(=O)Cc2ccc(-c3nccnc3C)cc2)[nH]1` (stereo not shown), the EC50 is 1010 to 5000 nM.
As to `COc1ccc2nc(C(F)(F)F)n(CC(=O)N3CCN(Cc4cn[nH]c4)CCC3c3ncc(-c4cc5ccccc5nc4OC)[nH]3)c2c1` (stereo not shown), the 50% effective concentration (EC50) fell in the range of 100 to 500 nM.
